Among the data in paper PMC4934371 (Biochemistry, 2016) are Kd, Ki and kcat/Km values, retold here.

Broadly, the Kd is the free concentration of one partner at which half of the binding sites on the other are occupied at equilibrium, for simple one-to-one binding. Low readings indicate higher affinity, high ones lower affinity. By Ki is commonly meant a measure of affinity in units of concentration, obtained from inhibition or displacement. Higher therefore signals a looser hold on the target. A word on the kcat/Km: it is the second-order rate constant that governs catalysis at low substrate concentration.

Series [1] has as its target T1, triosephosphate isomerase (TbbTIM) (Trypanosoma brucei, UniProt P04789, I172A/L232A). Briefly: activation of [[…]-13C]-glycolaldehyde turnover followed by 1H NMR, fit to give Kd. Format: biochemical.
The target of series [2] is T1, triosephosphate isomerase (TbbTIM). Briefly: X-ray crystal structure. Type of series: biochemical.
The subject of the next series is O=C[C@H](O)COP(=O)(O)O. The experiment in a line: steady-state kinetics of isomerization. Format: biochemical, Trypanosoma brucei. The conditions noted are these: active site; pH 7.5; 25.0 °C.

In turn, `O=[PH](O)O` [HPi, phosphite dianion] came in with a Kd in series [1] of 5.9 ± 0.5 mM.

In series [2], `O=C(O)COP(=O)(O)O` [PGA, 2-phosphoglycolate] displayed a Ki of 0.12 mM.

Take “triosephosphate isomerase (TbbTIM) (Trypanosoma brucei brucei; I172A/L232A)”: in the series on O=C[C@H](O)COP(=O)(O)O, the kcat/Km was 350000 M⁻¹ s⁻¹.
